Source: PubChem BioAssay AID1963825 (Molecular Pharmacology Branch, DTP, NCI, 2024)

Test: Anticancer human tumor 997537-175-T-J1-PDC patient-derived colon adenocarcinoma cell line growth inhibition [POLQ]
Conditions: 997537-175-T-J1-PDC complex spheroid viability, combination with POLQ inhibitors; for IC50: curve of first compound; for viability, T/C: stronger effect = lower value
Outline: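 PDC + HUVEC + MSC complex spheroids; POLQ inhibitors ± partner drugs; top conc. at/near clinical Cmax, else 10 microM (SN-38 1 microM), half-log dilutions; 37 degrees C, 5% CO2.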

[1] = second compound 0.0316 µM, first compound 0.0316 µM
[2] = second compound 0.0316 µM, first compound 0.1 µM
[3] = second compound 0.0316 µM, first compound 0.316 µM
[4] = second compound 0.0316 µM, first compound 1 µM
[5] = second compound 0.1 µM, first compound 0.0316 µM
[6] = second compound 0.1 µM, first compound 0.1 µM
[7] = second compound 0.1 µM, first compound 0.316 µM
[8] = second compound 0.1 µM, first compound 1 µM
[9] = second compound 0.316 µM, first compound 0.0316 µM
[10] = second compound 0.316 µM, first compound 0.1 µM
[11] = second compound 0.316 µM, first compound 0.316 µM
[12] = second compound 0.316 µM, first compound 1 µM
[13] = second compound 1 µM, first compound 0.0316 µM
[14] = second compound 1 µM, first compound 0.1 µM
[15] = second compound 1 µM, first compound 0.316 µM
[16] = second compound 1 µM, first compound 1 µM
[17] = second compound 3.16 µM, first compound 0.0316 µM
[18] = second compound 3.16 µM, first compound 0.1 µM
[19] = second compound 3.16 µM, first compound 0.316 µM
[20] = second compound 3.16 µM, first compound 1 µM
[21] = second compound 10 µM, first compound 0.0316 µM
[22] = second compound 10 µM, first compound 0.1 µM
[23] = second compound 10 µM, first compound 0.316 µM
[24] = second compound 10 µM, first compound 1 µM
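Further: luminescence signal used as a surrogate for viable cells; spheroids exposed to drugs for seven days before readout.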

C=CCn1c(=O)c2cnc(Nc3ccc(N4CCN(C)CC4)cc3)nc2n1-c1cccc(C(C)(C)O)n1 + Nc1ccc(C#CCN(C(=O)Cc2ncc(C(F)(F)F)cc2C(F)(F)F)c2ccc(F)cc2)nn1
IC50 (second compound 0.0316 µM): > 1 µM
IC50 (second compound 0.1 µM): > 1 µM
IC50 (second compound 0.316 µM): > 1 µM
IC50 (second compound 1 µM): > 1 µM
IC50 (second compound 3.16 µM): > 1 µM
IC50 (second compound 10 µM): > 1 µM
viability, T/C (second compound 0.0316 µM, first compound 0.00316 µM): 92.5%
viability, T/C (second compound 0.0316 µM, first compound 0.01 µM): 99.7%
viability, T/C [1]: 89.3%
viability, T/C [2]: 97.9%
viability, T/C [3]: 89.8%
viability, T/C [4]: 50.6%
viability, T/C (second compound 0.1 µM, first compound 0.00316 µM): 95.9%
viability, T/C (second compound 0.1 µM, first compound 0.01 µM): 96.8%
viability, T/C [5]: 94.4%
viability, T/C [6]: 95.1%
viability, T/C [7]: 98.4%
viability, T/C [8]: 73%
viability, T/C (second compound 0.316 µM, first compound 0.00316 µM): 92.6%
viability, T/C (second compound 0.316 µM, first compound 0.01 µM): 97.3%
viability, T/C [9]: 90.8%
viability, T/C [10]: 82%
viability, T/C [11]: 76.3%
viability, T/C [12]: 55.1%
viability, T/C (second compound 1 µM, first compound 0.00316 µM): 88.3%
viability, T/C (second compound 1 µM, first compound 0.01 µM): 104%
viability, T/C [13]: 94.4%
viability, T/C [14]: 84.5%
viability, T/C [15]: 92.9%
viability, T/C [16]: 62.2%
viability, T/C (second compound 3.16 µM, first compound 0.00316 µM): 81.3%
viability, T/C (second compound 3.16 µM, first compound 0.01 µM): 93.7%
viability, T/C [17]: 94.8%
viability, T/C [18]: 94.3%
viability, T/C [19]: 106%
viability, T/C [20]: 55.1%
viability, T/C (second compound 10 µM, first compound 0.00316 µM): 96.5%
viability, T/C (second compound 10 µM, first compound 0.01 µM): 85.5%
viability, T/C [21]: 87.6%
viability, T/C [22]: 80.9%
viability, T/C [23]: 97.4%
viability, T/C [24]: 72.9%

CC(C)n1c(=O)n(C)c2cnc3cc(F)c(-c4ccc(OCCCN5CCCCC5)nc4)cc3c21 + Nc1ccc(C#CCN(C(=O)Cc2ncc(C(F)(F)F)cc2C(F)(F)F)c2ccc(F)cc2)nn1
IC50 (second compound 0.0316 µM): > 10 µM
IC50 (second compound 0.1 µM): > 10 µM
IC50 (second compound 0.316 µM): > 10 µM
IC50 (second compound 1 µM): > 10 µM
IC50 (second compound 3.16 µM): > 10 µM
IC50 (second compound 10 µM): > 10 µM
viability, T/C [1]: 96%
viability, T/C [2]: 107%
viability, T/C [3]: 92.5%
viability, T/C [4]: 98%
viability, T/C (second compound 0.0316 µM, first compound 3.16 µM): 85.5%
viability, T/C (second compound 0.0316 µM, first compound 10 µM): 91.3%
viability, T/C [5]: 98.2%
viability, T/C [6]: 111%
viability, T/C [7]: 113%
viability, T/C [8]: 105%
viability, T/C (second compound 0.1 µM, first compound 3.16 µM): 97.2%
viability, T/C (second compound 0.1 µM, first compound 10 µM): 77.4%
viability, T/C [9]: 97%
viability, T/C [10]: 91.1%
viability, T/C [11]: 107%
viability, T/C [12]: 89.9%
viability, T/C (second compound 0.316 µM, first compound 3.16 µM): 107%
viability, T/C (second compound 0.316 µM, first compound 10 µM): 90.2%
viability, T/C [13]: 105%
viability, T/C [14]: 107%
viability, T/C [15]: 92.6%
viability, T/C [16]: 89.4%
viability, T/C (second compound 1 µM, first compound 3.16 µM): 105%
viability, T/C (second compound 1 µM, first compound 10 µM): 107%
viability, T/C [17]: 97.3%
viability, T/C [18]: 104%
viability, T/C [19]: 104%
viability, T/C [20]: 83.3%
viability, T/C (second compound 3.16 µM, first compound 3.16 µM): 97.8%
viability, T/C (second compound 3.16 µM, first compound 10 µM): 98.7%
viability, T/C [21]: 102%
viability, T/C [22]: 103%
viability, T/C [23]: 97.8%
viability, T/C [24]: 101%
viability, T/C (second compound 10 µM, first compound 3.16 µM): 96.2%
viability, T/C (second compound 10 µM, first compound 10 µM): 81.5%
